Patent US12509421B2, “Preparation and application of deuterated 4-phenyl-4-piperidinols” (priority 2022, dated 2025)
Counter-ions that a name gives are not always drawn. Like-named read-outs stand apart in the source and are kept apart here.

Assays:
[1] = target: T1, κOR (Homo sapiens, UniProt P41145); assay: Opioid receptor competitive binding test, κOR; details: compound at 10 μM; [3H]-labeled ligand; CHO cell membranes; ± SD of three measurements
T1 construct: expressed in transfected cells; host or cells: CHO cells
Description: (§1) CHO cells expressing p opioid receptor, δ opioid receptor and K opioid receptor are cultured in a 10 cm^2 Petri dish (F-12 medium+10% newborn bovine serum) for several days, and the culture solution is sucked after the cells grew to the bottom of the dish. 3 ml PBS/EDTA solution (0.1M NaCl, 0.01M NaH2PO4, 0.04% EDTA) is added for digestion for 3-5 minutes. The cells are blown with a straw to get fall off completely, collected in a 40 ml centrifuge tube, centrifuged at 5000 rpm for 5 minutes, and removed with the supernatant. The centrifuge tube is added with ice-cold homogenate (50 mM HEPES PH 7.4, 3 mM MgCl2, 1 mM EGTA). The solution and precipitate are transferred to homogenizer for homogenization; Then the homogenate is transferred into a centrifuge tube, centrifuged at 18000 rpm for 15 minutes, and centrifuged twice; the obtained precipitate is added with an appropriate amount of buffer solution of 50 mM Tris-HCl and pH 7.4, homogenized and sub-packaged in centrifuge tubes. The product is stored in a refrigerator at −70° C. for later use.
(§2) 20-30 μg expressed membrane receptor protein and [3H]-labeled ligand (1-2 nM) are added to the total binding tube, added with 1 μM of corresponding ligand to the corresponding nonspecific binding tube. Various screened opioid ligand drugs (see the drug compounds in Table 1 below) are added to the sample tube with 100 μL final volume. The sample is incubated at 30° C. for 30 minutes, and the reaction is terminated in ice water. The glass fiber filter paper gF/C (whatman) is used for negative pressure filtration on Millipore sample collector. The sample is eluted with 4 ml 50 mm tris-HCl (pH 7.4) for three times, dried with the filter paper, put in 0.5 ml Eppendorf tube and added with 0.5 ml lipophilic scintillation liquid. The radioactive intensity is measured with PERKIN ELMER PRI-CARB 2910 liquid scintillation counter with calculation of the inhibition rate. The experiment is repeated for more than three times, with three compound tubes in each group. Inhibition rate(or binding rate)=(total binding rate dpm−sample tube dpm)/(total binding tube dpm-nonspecific binding tube dpm)×100%
(§3) IC50 is calculated with Prism 5.0 software. The Ki value is calculated according to the following formula: Ki=IC50/(1^+[L]/Kd), wherein [L] is the concentration of the added labeled ligand, and Kd is the equilibrium dissociation parameter of the labeled ligand.

[2] = target: T2, μOR (Homo sapiens, UniProt P35372); assay: Opioid receptor competitive binding test, μOR; details: compound at 10 μM; [3H]-labeled ligand; CHO cell membranes; ± SD of three measurements
T2 construct: expressed in transfected cells; host or cells: CHO cells
Description: as §1, §2, §3

[3] = target: T3, δOR (Homo sapiens, UniProt P41143); assay: Opioid receptor competitive binding test, δOR; details: compound at 10 μM; [3H]-labeled ligand; CHO cell membranes; ± SD of three measurements
T3 construct: expressed in transfected cells; host or cells: CHO cells
Description: as §1, §2, §3

[4] = test system: Female Kunming mice; assay: Hot plate analgesia test in mice; format: in vivo; details: intraperitoneal, 55° C. hot plate; for Maximum analgesic effective percentage (% MPE), hot plate: 10 mg/kg; for ED50: Mus musculus, ip
Description: Female Kunming mice weighing about 20 g are placed on a hot plate instrument preheated to 55° C., and the latency of licking hind feet or lifting hind feet is used as the pain threshold index. Animals are screened before the experiment, and animals with latency less than 5 s or more than 30 s are excluded. To prevent foot burns, the longest observation time is set to 60s. The basic pain threshold is the average of two measurements, and the interval between the two measurements is 5 minutes. The pain threshold of mice in each group is determined at 15 minutes, 30 minutes, 60 minutes and 120 minutes after intraperitoneal administration. The effective percentage of analgesia (% MPE) is calculated according to the following formula
[formula] According to the effective percentage of analgesia, the ED50 value is calculated by graphpad prism 5.0 software.

[5] = target: hERG potassium channel (Homo sapiens, UniProt Q12809); assay: hERG potassium channel whole-cell patch clamp (HEK293); format: cell-based; set-up: expressed in transfected cells; host or cells: HEK293 cell line; details: for IC50: HEK293 cells stably expressing hERG, whole-cell patch clamp, room temperature, read-out: Half-inhibition concentration of compounds to be tested on hERG (IC50)
Text: The rapidly activated potassium channel encoded by human ether-a-go-go-related gene (hERG) is an important ion channel involved in the formation of phase 3 repolarization of myocardial action potential. […] Drug-induced delayed ventricular repolarization may cause fatal arrhythmia-torsade de pointes in some cases. According to statistics, about 25-40% of the lead compounds show different degrees of hERG-related toxicity, and many drugs are withdrawn from the market because they may lead to the risk of QT interval extension. At present, National Medical Products Administration also requires hERG/IKr safety evaluation data before clinical trial application (IND) of new drugs under study. • 1. Whole-cell patch clamp technique is used to study the inhibitory effect of compounds on hERG potassium channels: • 1) the compound to be tested is stored with physiological saline prepared into 10 mM liquid. The test stock solution is diluted with physiological saline into 3 mM, 1 mM and 0.3 mM diluents in turn. […] The old culture medium removed and is washed once with PBS, then added with 1 mL TrypLE™ Express solution and incubated at 37° C. for about 0.5 minutes. When the cells are detached from the bottom of the dish, about 5 ml complete medium preheated is added at 37° C. The cell suspension is gently blown with a straw to separate the aggregated cells. The cell suspension is transferred to a sterile centrifuge tube and centrifuged at 1000 rpm for 5 minutes to collect cells. […] The clamping voltage is depolarized from −80 mV to −50 mV for 0.5 seconds (as leakage current detection), then stepped to 30 mV for 2.5 seconds, and then quickly recovered to −50 mV for 4 seconds, which can excite the tail current of hERG channel. Data are collected repeatedly every 10s to observe the effect of drugs on hERG tail current. 0.5 seconds-50 mV stimulation is used as leakage current detection. The test data are collected by IPA amplifier (Sutter Instrument) and stored in SutterPatch software.
Capillary glass tube is drawn into recording electrode by microelectrode drawing instrument. Under the inverted microscope, the microelectrode manipulator is operated to contact the recording electrode with the cell, and negative pressure suction is given to form a GΩ seal. After the GΩ seal is formed, rapid capacitance compensation is carried out, and then negative pressure is continuously applied to break the cell membrane, forming a whole cell recording mode. Then the slow capacitance is compensated and the film capacitance and series resistance are recorded. No leakage compensation is given.
When the hERG current recorded in the whole cell is stable, the drug is administered, and the next concentration is detected after each drug concentration acts for 5 minutes (or the current is stable), and multiple concentrations are detected for each test compound. The cover glass covered with cells is placed in the recording bath in an inverted microscope, and the test compound and the external liquid containing no compound flowed through the recording bath from low concentration to high concentration by gravity perfusion method, so as to act on the cells, and liquid exchange is carried out by using a vacuum pump during recording. The current detected by each cell in the external fluid without compounds is used as its own control group.
At least two cells are used to detect each concentration independently and repeatedly twice. All electrophysiological tests are conducted at room temperature.
Firstly, the current after each drug concentration and the blank control current are standardized
[formula] followed by the calculation of the inhibition rate
[formula] corresponding to each drug concentration, the average and standard deviation for each concentration, and the semi-inhibition concentration of each compound with the following equation: […]
The dose-dependent effect is nonlinear fitted by the above equation, and IC50 is semi-inhibitory concentration.

[6] = target: CYP 2C9 (Homo sapiens, UniProt P11712); assay: Inhibition of cytochrome P450 enzyme in human liver microsomes, CYP 2C9; details: read-out: CYP 2C9 IC50; human liver microsomes; substrate Diclofenac
[7] = target: CYP 3A4 (Homo sapiens, UniProt P08684); details: read-out: CYP 3A4 IC50, human liver microsomes
[8] = target: CYP 2C19 (Homo sapiens, UniProt P33261); assay: Inhibition of cytochrome P450 enzyme in human liver microsomes, CYP 2C19; details: read-out: CYP 2C19 IC50; human liver microsomes; substrate (S)-mephenytoin
[9] = target: CYP 2D6 (Homo sapiens, UniProt P10635); assay: Inhibition of cytochrome P450 enzyme in human liver microsomes, CYP 2D6; details: read-out: CYP 2D6 IC50; human liver microsomes; substrate Dextromethorphan
[10] = target: T4, CYP 1A2 (Homo sapiens, UniProt P05177); assay: Inhibition of cytochrome P450 enzyme in human liver microsomes, CYP 1A2; details: read-out: CYP 1A2 IC50; human liver microsomes; substrate Finacetin
T4 sequence (P05177 1-516): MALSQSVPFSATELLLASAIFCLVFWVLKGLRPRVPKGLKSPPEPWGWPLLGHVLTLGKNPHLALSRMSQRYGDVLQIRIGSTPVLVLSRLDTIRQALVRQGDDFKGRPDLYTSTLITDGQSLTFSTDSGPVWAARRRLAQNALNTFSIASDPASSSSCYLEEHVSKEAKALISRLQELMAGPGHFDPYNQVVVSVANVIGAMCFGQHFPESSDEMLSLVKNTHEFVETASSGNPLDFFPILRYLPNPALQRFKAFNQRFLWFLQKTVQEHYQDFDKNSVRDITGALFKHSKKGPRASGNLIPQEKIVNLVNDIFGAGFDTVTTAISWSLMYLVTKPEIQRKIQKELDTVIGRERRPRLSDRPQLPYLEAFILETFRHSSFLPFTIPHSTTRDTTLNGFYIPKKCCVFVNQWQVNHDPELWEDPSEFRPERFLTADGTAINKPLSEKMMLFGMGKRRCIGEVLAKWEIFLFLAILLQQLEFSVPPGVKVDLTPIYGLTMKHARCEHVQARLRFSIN

`[2H]C([2H])([2H])N(CC1CN(S(=O)(=O)Cc2ccccc2)CCC1(O)c1cccc(OC)c1)C([2H])([2H])[2H]` (stereo not drawn) [I-4hydrochloride] was tested, and the κOR binding rate [1] was 18.5 ± 3.2%, the μOR binding rate [2] was 25.9 ± 3.9% and the δOR binding rate [3] was 10.1 ± 0.6%. The “Maximum analgesic effective percentage (% MPE), hot plate” value [4] was 100%, the “hERG inhibition grade” value [5] was “μM((Weak inhibition)” and the IC50 [5] was 11 µM.

Molecule `[2H]C([2H])([2H])Oc1cccc(C2(O)CCN(S(=O)(=O)Cc3ccccc3)CC2CN(C([2H])([2H])[2H])C([2H])([2H])[2H])c1` (stereo not drawn) [I-3hydrochloride] has a κOR binding rate [1] of 14.9 ± 0.9%, a μOR binding rate [2] of 22.75 ± 2.3% and a δOR binding rate [3] of 8.6 ± 1.2%. The ED50 [4] was 0.82 mg/kg, the “hERG inhibition grade” value [5] was “μM((Weak inhibition)” and the IC50 [5] was 16.6 µM.

With `[2H]C([2H])([2H])N(C)CC1CN(S(=O)(=O)Cc2ccccc2)CCC1(O)c1cccc(OC)c1` (stereo not drawn) [I-1hydrochloride] the κOR binding rate [1] was 22.5 ± 3.2%, the μOR binding rate [2] was 23.95 ± 3.8% and the δOR binding rate [3] was 11.4 ± 1.7%. For the same molecule, the ED50 [4] was 0.62 mg/kg, the “hERG inhibition grade” value [5] was “μM((Weak inhibition)” and the IC50 [5] was 12.9 µM.

With “1-(4-hydroxy-4-(3-methoxyphenyl)-3-(((methyl-d3)amino)methyl)-1-piperidinyl)-2(2,4,5-trifluorophenyl)ethyl-1-one [I-5hydrochloride]” the κOR binding rate [1] was 19.1 ± 1.2%, the μOR binding rate [2] was 22.6 ± 1.7% and the δOR binding rate [3] was 12.5 ± 2.9%. For the same molecule, the “ED50, hot plate” value [4] was 0.75 mg/kg, the “hERG inhibition grade” value [5] was “μM((Weak inhibition)” and the IC50 [5] was 13.5 µM.

For `COc1cccc([C@]2(O)CCN(S(=O)(=O)Cc3ccccc3)C[C@H]2CN(C)C)c1.Cl` [Example 20 of CN201911076305.X, (3R, 4S)-1-(benzylsulfonyl)-3-(dimethylamino)methyl)-4-(3-methoxyphenyl)-4-piperidinol hydrochloride, reference compound], the IC50 [6] was > 50 µM, the IC50 ([7]; substrate midazolam) was 32.3 µM and the IC50 ([7]; substrate testosterone) was 46.4 µM. For the same molecule, the IC50 [8] was > 50 µM, the IC50 [9] was 9.61 µM and the IC50 [10] was > 50 µM.

For `[2H]C([2H])([2H])N(CC1CN(C(=O)Cc2cc(F)c(F)cc2F)CCC1(O)c1cccc(OC)c1)C([2H])([2H])[2H]` (stereo not drawn) [I-8hydrochloride], the κOR binding rate [1] was 16.4 ± 2.6%, the μOR binding rate [2] was 22.8 ± 2.8% and the δOR binding rate [3] was 8.2 ± 0.9%. For the same molecule, the “Maximum analgesic effective percentage (% MPE), hot plate” value [4] was 100%, the “hERG inhibition grade” value [5] was “μM((Weak inhibition)” and the IC50 [5] was 16.8 µM.
